This is an account of results in patent publication US5362743A, “Aminoquinoline derivatives” (Pfizer Inc., priority 1993, dated 1994).

SMILES strings stand for the structures.

The subject of one test is osteoclasts. The experiment in a line: bone slice assay: bone resorption by isolated osteoclasts (scanning electron microscopy). The test is classed as cell-based, neonatal rat. To be noted: isolated osteoclasts on bone slices. As to the method: 155, (1985), as well as in Endocrinology, Vol. 116, p. 234 (1985). In this assay, osteoclasts are mechanically disaggregated from neonatal rat long bones into Hepes-buffered medium 199 (available from Flow Laboratories of Irvine, […] in the United Kingdom). The suspension is agitated with a pipette and the larger fragments were allowed to settle for a period of 30 seconds. The cells are then added to two wells of a multiwell-dish containing bone slices, with each of said slices measuring 2.5 mm^2. After incubating at 37° C. for a period of 15 minutes, the aforesaid bone slices are then removed, washed in medium 199 and placed in individual wells of a 96-well plate (also available from Flow Laboratories). These latter bone slices are then incubated overnight in a total volume of […] of culture medium consisting of 10% newborn calf-serum (from Flow Laboratories) in Hanks-buffered MEM (also from Flow Laboratories) in the presence or absence of the test compound. Bone resorption is quantified by means of scanning electron microscopy. […] The number and size of the osteoclastic excavations, and the plan area of bone resorbed is recorded. Differences between groups are then analyzed by means of Student's t-Test.

In the next test the target is T1, gastric H^+ /K^+ -ATPase (Sus scrofa, UniProt P19156).
T1 construct: preparing the microsomes from hog gastric mucosa; from tissue; host or cells: hog gastric mucosa (microsomes)
T1 sequence (P19156 2-1034 limits assumed): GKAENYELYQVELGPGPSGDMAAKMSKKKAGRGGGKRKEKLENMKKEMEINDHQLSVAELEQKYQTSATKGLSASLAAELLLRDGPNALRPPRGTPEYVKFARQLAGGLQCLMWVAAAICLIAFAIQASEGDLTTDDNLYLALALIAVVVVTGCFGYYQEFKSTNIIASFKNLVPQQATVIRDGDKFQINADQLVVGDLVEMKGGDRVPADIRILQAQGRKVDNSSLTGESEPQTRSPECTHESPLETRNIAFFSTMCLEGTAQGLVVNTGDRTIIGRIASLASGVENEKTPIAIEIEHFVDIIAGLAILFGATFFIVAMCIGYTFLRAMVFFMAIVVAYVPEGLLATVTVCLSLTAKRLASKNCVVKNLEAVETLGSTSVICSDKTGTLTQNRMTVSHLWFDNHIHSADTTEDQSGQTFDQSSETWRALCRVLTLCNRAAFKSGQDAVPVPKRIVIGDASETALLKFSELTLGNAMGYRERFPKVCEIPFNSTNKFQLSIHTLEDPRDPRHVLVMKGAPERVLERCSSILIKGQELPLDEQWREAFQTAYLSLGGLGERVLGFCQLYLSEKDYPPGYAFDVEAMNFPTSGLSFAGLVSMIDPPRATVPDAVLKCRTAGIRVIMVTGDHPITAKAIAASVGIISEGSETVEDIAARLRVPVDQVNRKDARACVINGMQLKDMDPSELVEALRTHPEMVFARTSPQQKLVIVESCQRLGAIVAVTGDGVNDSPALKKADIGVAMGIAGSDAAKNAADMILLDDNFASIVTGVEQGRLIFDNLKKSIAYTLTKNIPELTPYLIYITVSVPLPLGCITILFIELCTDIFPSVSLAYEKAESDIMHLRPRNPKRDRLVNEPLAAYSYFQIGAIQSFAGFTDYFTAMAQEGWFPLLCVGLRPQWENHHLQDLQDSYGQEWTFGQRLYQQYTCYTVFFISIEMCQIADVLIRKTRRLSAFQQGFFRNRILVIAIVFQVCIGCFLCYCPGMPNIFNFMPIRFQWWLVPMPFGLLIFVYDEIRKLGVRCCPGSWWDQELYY
T1 sequence (P18434 whole entry partner): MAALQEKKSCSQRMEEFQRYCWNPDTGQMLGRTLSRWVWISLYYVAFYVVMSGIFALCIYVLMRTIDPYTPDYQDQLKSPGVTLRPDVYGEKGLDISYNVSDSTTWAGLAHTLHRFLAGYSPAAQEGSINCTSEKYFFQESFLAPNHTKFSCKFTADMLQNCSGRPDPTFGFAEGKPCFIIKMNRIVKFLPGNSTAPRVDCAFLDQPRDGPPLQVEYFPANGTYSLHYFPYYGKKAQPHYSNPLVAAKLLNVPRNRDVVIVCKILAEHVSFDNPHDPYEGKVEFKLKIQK
In words: gastric H+/K+-ATPase inhibition in isolated porcine gastric microsomes (phosphate release). It is filed as biochemical. As to the method:
The activity of the compounds of the present invention as anti-ulcer agents, useful in the treatment of gastric disease in mammals, such as peptic ulcers, etc., is assessed by their ability to inhibit gastric H^+ /K^+ -ATPase, using isolated porcine gastric microsomes and essentially employing a modification of the method first described by G. Saccomani et al., as initially reported in Biochimica Biophysica Acta, Vol. 465, p. 311 (1977). The modification involves preparing the microsomes from hog gastric mucosa according to the procedure first described by L-A. Yeh et al., in Membrane Biochemistry, Vol. 9, p. 129 (1991). The H^+ /K^+ -ATPase enzyme activity is assayed according to the procedure described by N. Chang et al., in Biochimica Biophysica Acta, Vol. 464, p. 313 (1977), using a medium containing […], 3 mM ATP, 50 mM Tris-HCl (pH 7.4) and 2 mM MgCl2 with or without 10 mM KCl in a final volume of 1.1 mL. The incubation step is initially carried out at 37° C. for a period of 15 minutes. The reaction is then terminated by the addition of 100 μL of 50% TCA (trichloroacetic acid). Phosphate release is next measured spectrophotometrically in the manner described by C. H. Fiske et al., in the Journal of Biological Chemistry, Vol. 66, p. 375 (1925).

Regarding `CCOC(=O)CCC(=O)c1cnc2c(OC)cccc2c1Nc1ccccc1C` [Example 1, 3-(3-ethoxycarbonylpropionyl)-8-methoxy-4-(2-methylphenylamino)quinoline], the minimal effective concentration in the test on osteoclasts (Rattus norvegicus, Osteoclast, overnight incubation, dose-responsive, read-out: concentration level at which statistically significant inhibition of bone resorption occurs) amounted to 0.1 µM. Further, the “inhibition of lacunae formation and bone resorption (in words)” value in the test on osteoclasts was “potent inhibitor of lacunae formation and of resultant bone resorption”. At gastric H^+ /K^+ -ATPase (at 10 μM), the inhibition at 10 µM is around 50%. Moreover, the “nature of H+/K+-ATPase inhibition” value at gastric H^+ /K^+ -ATPase (porcine gastric microsomes) is “both reversibly and specifically”. Besides, the IC50 at gastric H^+ /K^+ -ATPase (porcine gastric microsomes, 37° C., 15 minutes, pH 7.4, read-out: IC50 value range, inhibition of gastric H+/K+-ATPase) fell in the range of 10 to 20 µM.

What is called inhibition is the share of the control response that was lost under treatment. A low value points to little suppression.
